Experiment [1] deals with E. coli MG1655. Description: Determination of minimum inhibitory concentration (MIC). The conditions noted are these: Escherichia coli, MG1655, Example 2; methods as in Example 1; read-out: MIC E. coli. It counts as cell-based. The method, then: (§1) Determination of minimum inhibitory concentration (MIC). MICs were also determined on Mueller Hinton agar plates (0.2% beef extract, 1.75% acid digest of casein, 0.15% soluble starch, 1.5% agar, pH 7.3).
(§2) Determination of MIC Minimal inhibitory concentrations (MICs) were determined using a standard 2-fold serial dilution format on L agar plates. Ten microliters of stationary culture diluted in 0.85% NaCl to 10^6 cells/ml were spotted on per plate. […] MICs were also determined on Mueller Hinton agar plates (0.2% beef extract, 1.75% acid digest of casein, 0.15% soluble starch, 1.5% agar, pH 7.3).

For experiment [2], the system named is P. putida NBRC14164. The description is as above. The format is cell-based, Pseudomonas putida. The note with it: Pseudomonas putida, NBRC14164, Example 2; methods as in Example 1; read-out: MIC P. putida. As to the method:
as §1, §2

Experiment [3] relates to S. typhimurium NBRC13245. The description is as above. It counts as cell-based, Salmonella typhimurium. The conditions noted are these: Salmonella enterica, Example 2; methods as in Example 1; read-out: MIC S. typhimurium. The method, then:
as §1, §2

For experiment [4], the system named is B. subtilis 168. The description is as above. The format is cell-based, Bacillus subtilis. The conditions noted are these: Bacillus subtilis, 168, Example 2; methods as in Example 1; read-out: MIC B. subtilis. As to the method:
as §1, §2

Experiment [5] has as its system S. aureus subsp. aureus NBRC15035. The experiment is described as above. The format is cell-based, Staphylococcus aureus. The note with it: Staphylococcus aureus, NBRC15035, Example 2; methods as in Example 1; read-out: MIC S. aureus. As to the method:
as §1, §2

Experiment [6] relates to E. coli MG1655. Description: Microscopic observation of cell shape. The note with it: Example 2; methods as in Example 1. The format is cell-based. The method, then: Microscopic observation. E. coli K-12 strain MG1655 (F^− λ^−) was grown in Lennox broth containing 1% Polypepton, 0.5% yeast extract, 0.5% NaCl, and 0.1% glucose (pH 7.2). Cells spread on a slide glass were treated with methanol for 5 min and covered with poly-L-lysine. The fixed cells were observed by the differential interference contrast system through an Axioskop 2 microscope (Carl Zeiss Co., Ltd., Oberkochen, Germany). To observe the anucleate cells, cells were stained with a 4′,6-diamidino-2-phenylindole (DAPI) solution (5 μg/ml in saline) and then observed by the fluorescence phase-contrast combined method.
The effect of each compound on E. coli cell morphology was next examined.

SMILES strings stand for the structures. ≈ marks a conversion by molar mass, not a printed value.

Broadly, the MIC is the lowest concentration found to suppress growth.

Regarding `N=C(N)SCc1cccc(Cl)c1Cl` [2,3-Cl], the minimal inhibitory concentration (MIC) in experiment [1] was 25 µg/mL (≈ 106 µM); in experiment [2] it was above 100 µg/mL; in experiment [3], 25 µg/mL (≈ 106 µM); in experiment [4], 100 µg/mL (≈ 425 µM); in experiment [5], 25 µg/mL (≈ 106 µM). Besides, in experiment [6], the Shape result is listed as “Sphere”.
As for `N=C(N)SCc1c(Cl)cc(Cl)cc1Cl` [2,4,6-Cl], the MIC in experiment [1] is 100 µg/mL (≈ 371 µM); in experiment [2] it was above 100 µg/mL; in experiment [3], above 100 µg/mL; in experiment [4] it was 100 µg/mL (≈ 371 µM); in experiment [5] it was above 100 µg/mL. The Shape result in experiment [6] is “Sphere”.
Regarding `N=C(N)SCc1cc(F)c(Cl)cc1Cl` [2,4-Cl 5-F, S-(2,4-Dichloro, and 5-fluoro-benzyl)-isothiourea], the minimal inhibitory concentration (MIC) in experiment [1] is 0.78 µg/mL (≈ 3.08 µM); in experiment [2] it was above 100 µg/mL; in experiment [3], 12.5 µg/mL (≈ 49.4 µM); in experiment [4], 12.5 µg/mL (≈ 49.4 µM); in experiment [5], above 100 µg/mL. Besides, the Shape result in experiment [6] is recorded as “Sphere”.
With `N=C(N)SCc1ccc(Cl)cc1Cl` [2,4-Cl, S-(2,4-Dichloro-benzyl)-isothiourea], the MIC in experiment [1] is 1.56 µg/mL (≈ 6.63 µM); in experiment [2], above 100 µg/mL; in experiment [3], 1.56 µg/mL (≈ 6.63 µM); in experiment [4] it was above 100 µg/mL; in experiment [5], above 100 µg/mL. In experiment [6], the Shape entry was “Sphere”.
Consider `N=C(N)SCc1cc(Cl)ccc1Cl` [2,5-Cl], for which the MIC was 12.5 µg/mL (≈ 53.2 µM) in experiment [1]; above 100 µg/mL in experiment [2]; 25 µg/mL (≈ 106 µM) in experiment [3]; above 100 µg/mL in experiment [4]; above 100 µg/mL in experiment [5]. In addition, the Shape result in experiment [6] is reported as “Sphere”.
As for `N=C(N)SCc1c(Cl)cccc1Cl` [2,6-Cl], the MIC in experiment [1] was 12.5 µg/mL (≈ 53.2 µM); in experiment [2], above 100 µg/mL; in experiment [3], 25 µg/mL (≈ 106 µM); in experiment [4], above 100 µg/mL; in experiment [5] it was above 100 µg/mL. In experiment [6], the Shape entry is “Sphere”.
In the case of `N=C(N)SCc1c(F)cccc1F` [2,6-F], the MIC in experiment [1] is 50 µg/mL (≈ 247 µM); in experiment [2] it was above 100 µg/mL; in experiment [3], 50 µg/mL (≈ 247 µM); in experiment [4], above 100 µg/mL; in experiment [5], above 100 µg/mL. Besides, the Shape entry in experiment [6] is on record as “Sphere”.
In the case of `N=C(N)SCc1ccc(F)c(F)c1` [3,4-F], the minimum inhibitory concentration (MIC) in experiment [1] was 12.5 µg/mL (≈ 61.8 µM); in experiment [2], above 100 µg/mL; in experiment [3], 25 µg/mL (≈ 124 µM); in experiment [4], 25 µg/mL (≈ 124 µM); in experiment [5] it was 100 µg/mL (≈ 494 µM). For the same compound, in experiment [6], the Shape entry is reported as “Sphere”.
As for `N=C(N)SCc1cc(Cl)cc(Cl)c1` [3,5-Cl], the MIC in experiment [1], in experiment [2], in experiment [3], in experiment [4] and in experiment [5] was above 100 µg/mL in each case. In experiment [6], the Shape entry is “Sphere”.
As for `N=C(N)SCc1ccc(Cl)nc1` [4-Cl Pyr], the MIC in experiment [1] is 100 µg/mL (≈ 496 µM); in experiment [2], above 100 µg/mL; in experiment [3], above 100 µg/mL; in experiment [4] it was above 100 µg/mL; in experiment [5], above 100 µg/mL. Also, in experiment [6], the Shape result is “Sphere”.
On to `CC1(C)S[C@@H]2[C@H](NC(=O)C(N)c3ccccc3)C(=O)N2[C@H]1C(=O)O` (stereo partly drawn) [ABPC, reference compound], for which the minimum inhibitory concentration (MIC) in experiment [1] was 3.13 µg/mL (≈ 8.96 µM); in experiment [2] it was above 100 µg/mL; in experiment [3], 1.56 µg/mL (≈ 4.46 µM); in experiment [4], 0.0488 µg/mL (≈ 0.14 µM); in experiment [5], 0.195 µg/mL (≈ 0.558 µM). Moreover, in experiment [6], the Shape result is “Fil”.
In the case of `CC1CN(c2c(F)c(N)c3c(=O)c(C(=O)O)cn(C4CC4)c3c2F)CC(C)N1` (stereo not drawn) [SPFX, reference compound], the minimum inhibitory concentration (MIC) in experiment [1] stood at 0.0244 µg/mL (≈ 0.0622 µM); in experiment [2], 0.391 µg/mL (≈ 0.996 µM); in experiment [3], 0.0488 µg/mL (≈ 0.124 µM); in experiment [4] it was 0.0244 µg/mL (≈ 0.0622 µM); in experiment [5], 0.0488 µg/mL (≈ 0.124 µM).
`CN(C)[C@@H]1C(O)=C(C(N)=O)C(=O)[C@@]2(O)C(O)=C3C(=O)c4c(O)cccc4[C@@](C)(O)C3CC12` (stereo partly drawn) [TC, reference compound]: in experiment [6], the Shape entry is recorded as “Rod”.
